Measurements reported in patent publication US12514928B2, “Herboxidiene antibody-drug conjugates and methods of use” (Eisai R&D Management Co., Ltd., priority 2018, dated 2026).
Where two headings read alike, the source gives them in different places.

How the values were obtained:
[1] = test system: Ad2.2 pre-mRNA; test: In vitro splicing (IVS) assay with HeLa nuclear extract, RT-qPCR of spliced product; type: biochemical; conditions: payload, HELA.2, read-out: qPCR-IVS-ATS GMean IC50 (nM) Ad2.2 HELA.2
Experimental: 2.1 In Vitro Splicing (IVS)
To evaluate payload activity in a cell-free system, an in vitro splicing assay was performed. The payloads were incubated with nuclear extracts and pre-mRNA substrate minigenes.
HeLa nuclear extract preparation: HeLa S3 cell pellets were resuspended in hypotonic buffer (10 mM HEPES pH 7.9, 1.5 mM MgCl2, 10 mM KCl, 0.2 mM PMSF, 0.5 mM DTT) and the suspension was brought up to a total of 5 packed cell volume (PCV). After centrifugation, the supernatant was discarded, and the cells were brought up to 3 PCV with hypotonic buffer and incubated on ice for 10 min. Cells were lysed using a dounce homogenizer and then centrifuged. The supernatant was discarded, and the pellet was resuspended with […] packed nuclear volume (PNV) of low salt buffer (20 mM HEPES pH 7.9, 1.5 mM MgCl2, 20 mM KCl, 0.2 mM EDTA, 25% glycerol, 0.2 mM PMSF, 0.5 mM DTT), followed by 1/2 PNV of high salt buffer (same as low salt buffer except 1.4 M KCl). The nuclei were gently mixed for 30 min before centrifuging. The supernatant (nuclear extract) was then dialyzed into storage buffer (20 mM HEPES pH 7.9, 100 mM KCl, 0.2 mM EDTA, 20% glycerol, 0.2 mM PMSF, 0.5 mM DTT). Protein concentration was determined using NanoDrop 8000 UV-Vis spectrophotometer (ThermoFisher Scientific).
IVS: All Ad2-derived sequences (Pellizzoni et al. (1998) Cell 95(5):615-24) were cloned into pcDNA3.1(+) vector (Promega) using 5′ EcoRI and 3′ Xbal restriction sites. The plasmids were linearized using Xbal and used as DNA templates in in vitro transcription reactions. The FtzΔi intron-less plasmid (Luo and Reed (1999) 96(26):14937-42) was linearized using EcoRI. All RNAs were in vitro transcribed and then purified using MEGAScript T7 (Invitrogen) and MegaClear (Invitrogen) kits, respectively. For splicing reactions using Ad2 variant pre-mRNAs, […] were prepared using 8 μg nuclear extracts prepared from HeLa S3, 2 ng pre-mRNA, 0.2 ng FTZΔi, and varying concentrations of compounds or DMSO. After a 15 min pre-incubation at 30° C., 1 μL splicing activation buffer (0.5 mM ATP, 20 mM creatine phosphate, 1.6 mM MgCl2) was added, and the reactions were incubated for 90 min at 30° C. The reactions were then quenched with 13 μL DMSO, and 25 nL was used for RT-qPCR. RT-qPCR reactions were prepared using TaqMan RNA-to-CT 1-step kit (Life Technologies), RNA from splicing reactions, Ad2 (forward: […]; reverse: […]; probe: CTGTTGGGCTCGCGGTTG) and Ftz (forward: […]; reverse: […]; probe: […]) mRNA primer-probe sets. Prism 7 (Graphpad) was used for non-linear regression curve fitting of the formed spliced product and normalized to the control (DMSO) sample.

[2] = test system: Ad2.1; test: In vitro splicing (IVS) assay, qPCR-IVS-ATS, Ad2.1 substrate, HELA.2; type: biochemical; conditions: payload, read-out: qPCR-IVS-ATS GMean IC50 (nM) Ad2.1 HELA.2
[3] = test system: THP1.1; test: Herboxidiene splicing modulator cell potency, CTGlo-ATS, THP1.1, 72 h; type: cell-based
[4] = test system: NCIH1650.1; test: Herboxidiene splicing modulator cell potency, CTGlo-ATS, NCIH1650.1, 72 h; type: cell-based
[5] = target: SF3b complex (Homo sapiens, UniProt O75533+Q7RTV0); test: Payload binding to the SF3b complex (SF3B1 binding); conditions: SF3B1 (WT), HELA.2, read-out: SPA-ATS GMean IC50 (nM) SF3B1 (WT) HELA.2
Experimental: Exemplary herboxidiene spliceosome modulator payloads used in the preparation of ADCs were profiled. Payloads were evaluated for binding to the SF3b complex, in vitro splicing activity, and ability to inhibit cell growth.

[6] = Caco-2 permeability of ADC payload; type: in vitro ADME; conditions: human, payload at 10 μM, 2 hours, apical to basolateral, read-out: Permeability Mean Caco-2 A-B Perm
Experimental: 3.5.2 Caco-2 Permeability of ADC Payload
Caco-2 cells were cultured for 21 days in transwell 24-well plates at 37° C., 95% humidity, 5% CO2. Integrity of cell monolayer was confirmed by TEER (transepithelial electrical resistance) and Lucifer yellow. Payloads were spiked in duplicate at 10 μM, separately, on both sides of the cell monolayer. Permeability rates from the apical to basolateral (A-B) direction and the basolateral to apical (B-A) direction were determined by sampling aliquots from both chambers immediately after treatment (t=0) and following incubation for 2 hours. Samples were protein precipitated with organic solvent containing internal standard and analyzed by LC-MS/MS (SCI EX; API 5500). The area ratio responses of payload/internal standard over time in both directions were used to generate permeability (cm/sec) values. Efflux ratio was calculated by dividing B-A/A-B. Control compounds for low and high permeability and efflux behaved as expected.

[7] = payload, THP1.1, read-out: CTGIo-ATS GMean GI50 (nM) 72 h THP1.1
[8] = payload, NCIH1650.1, read-out: CTGIo-ATS GMean GI50 (nM) 72 h NCIH1650.1
[9] = read-out: CTGIo-ATS GMean GI50 (nM) 72 h THP1.1
[10] = read-out: CTGIo-ATS GMean GI50 (nM) 72 h NCIH1650.1

Row | SMILES | IC50 [1] [nM] | IC50 [2] [nM] | CTGIo-ATS GMean LD50 (nM) 72 h THP1.1 ([3]; payload) [nM] | CTGIo-ATS Mean MinResponse % 72 h THP1.1 ([3]; payload) [%] | GI50 [3, 7] [nM] | CTGIo-ATS GMean LD50 (nM) 72 h NCIH1650.1 ([4]; payload) [nM] | CTGIo-ATS Mean MinResponse % 72 h NCIH1650.1 ([4]; payload) [%] | GI50 [4, 8] [nM] | IC50 [5] [nM] | Papp A→B at 2 h, 10 μM [6] [×10⁻⁶ cm/s] | GI50 [3, 9] [nM] | GI50 [4, 10] [nM]
1 | CNC1CCN(C(=O)OCCOCCC(=O)NC[C@H]2CC[C@H](C)[C@@H](/C(C)=C/C=C/[C@@H](C)C[C@@]3(C)O[C@@H]3[C@H](C)[C@@H](OC)[C@@H](C)O)O2)C1 (stereo partly drawn) [Compound H10, 2-(3-((((2R,5S,6S)-6-((S,2E,4E)-7-((2R,3R)-3-((2R,3R,4R)-4-hydroxy-3-methoxypentan-2-yl)-2-methyloxiran-2-yl)-6-methylhepta-2,4-dien-2-yl)-5-methyltetrahydro-2H-pyran-2-yl)methyl)amino)-3-oxopropoxy)ethyl 3-(methylamino)pyrrolidine-1-carboxylate] | 16.5 | 21.7 | 21.021 | −98.789 | 2.06 | >10000 | 9.194 | 3.04 |  |  |  | 
2 | CNC1CCN(C(=O)OCCCCCC(=O)NC[C@H]2CC[C@H](C)[C@@H](/C(C)=C/C=C/[C@@H](C)C[C@@]3(C)O[C@@H]3[C@H](C)[C@@H](OC)[C@@H](C)O)O2)C1 (stereo partly drawn) [Compound H7, 6-((((2R,5S,6S)-6-((S,2E,4E)-7-((2R,3R)-3-((2R,3R,4R)-4-hydroxy-3-methoxypentan-2-yl)-2-methyloxiran-2-yl)-6-methylhepta-2,4-dien-2-yl)-5-methyltetrahydro-2H-pyran-2-yl)methyl)amino)-6-oxohexyl 3-(methylamino)pyrrolidine-1-carboxylate] | 12.1 | 14.5 | 6.756 | −99.328 | 0.65 | >10000 | 5.754 | 0.772 |  |  |  | 
3 | CO[C@H]([C@@H](C)[C@H]1O[C@]1(C)C[C@H](C)/C=C/C=C(\C)[C@H]1O[C@@H](CC(=O)N[C@@H](CCCOC(=O)N2CCNCC2)C(=O)O)CC[C@@H]1C)[C@@H](C)O [Compound H4, (S)-2-(2-((2R,5S,6S)-6-((S,2E,4E)-7-((2R,3R)-3-((2R,3R,4R)-4-hydroxy-3-methoxypentan-2-yl)-2-methyloxiran-2-yl)-6-methylhepta-2,4-dien-2-yl)-5-methyltetrahydro-2H-pyran-2-yl)acetamido)-5-((piperazine-1-carbonyl)oxy)pentanoic acid] | 29.6 | 31.6 | 5337.399 | −40.902 |  | 2575.18 | 728.583 |  | 14.5 | 19.3 | 649 | 464
4 | CO[C@H]([C@@H](C)[C@H]1O[C@]1(C)C[C@H](C)/C=C/C=C(\C)[C@H]1O[C@@H](CNC(=O)CCOCCOC(=O)N2CCCNCC2)CC[C@@H]1C)[C@@H](C)O [Compound H9, 2-(3-((((2R,5S,6S)-6-((S,2E,4E)-7-((2R,3R)-3-((2R,3R,4R)-4-hydroxy-3-methoxypentan-2-yl)-2-methyloxiran-2-yl)-6-methylhepta-2,4-dien-2-yl)-5-methyltetrahydro-2H-pyran-2-yl)methyl)amino)-3-oxopropoxy)ethyl 1,4-diazepane-1-carboxylate] | 8.66 | 9.68 | 14.441 | −101.645 |  | 2.681 | 2.327 |  |  | 11.6 | 1.34 | 0.481
5 | CNC1CCN(C(=O)O[C@@H]2C[C@H](CC(=O)O)O[C@H](/C(C)=C/C=C/[C@@H](C)C[C@@]3(C)O[C@@H]3[C@H](C)[C@@H](OC)[C@@H](C)O)[C@H]2C)C1 (stereo partly drawn) [Compound H3, 2-((2R,4R,5S,6S)-6-((S,2E,4E)-7-((2R,3R)-3-((2R,3R,4R)-4-hydroxy-3-methoxypentan-2-yl)-2-methyloxiran-2-yl)-6-methylhepta-2,4-dien-2-yl)-5-methyl-4-((3-(methylamino)pyrrolidine-1-carbonyl)oxy)tetrahydro-2H-pyran-2-yl)acetic acid] | 35.2 | 562 | 478.332 | −92.943 | 54.6 | >10000 | 19.182 | 115 |  |  |  | 
6 | CO[C@H]([C@@H](C)[C@H]1O[C@]1(C)C[C@H](C)/C=C/C=C(\C)[C@H]1O[C@@H](CNC(=O)CCCCCOC(=O)N2CCCNCC2)CC[C@@H]1C)[C@@H](C)O [Compound H6, 6-((((2R,5S,6S)-6-((S,2E,4E)-7-((2R,3R)-3-((2R,3R,4R)-4-hydroxy-3-methoxypentan-2-yl)-2-methyloxiran-2-yl)-6-methylhepta-2,4-dien-2-yl)-5-methyltetrahydro-2H-pyran-2-yl)methyl)amino)-6-oxohexyl 1,4-diazepane-1-carboxylate] | 7.19 | 9.51 | 6.522 | −101.275 |  | 1.336 | 0.978 |  |  | 5.72 | 0.701 | 0.219
7 | CO[C@H]([C@@H](C)[C@H]1O[C@]1(C)C[C@H](C)/C=C/C=C(\C)[C@H]1O[C@@H](CNC(=O)CCOCCOC(=O)N2CCNCC2)CC[C@@H]1C)[C@@H](C)O [Compound H8, 2-(3-((((2R,5S,6S)-6-((S,2E,4E)-7-((2R,3R)-3-((2R,3R,4R)-4-hydroxy-3-methoxypentan-2-yl)-2-methyloxiran-2-yl)-6-methylhepta-2,4-dien-2-yl)-5-methyltetrahydro-2H-pyran-2-yl)methyl)amino)-3-oxopropoxy)ethyl piperazine-1-carboxylate] | 12.9 | 12.9 | 11.851 | −102.030 | 1.22 | >10000 | 17.053 | 1.1 |  |  |  | 
